Results: the supplement of paper PMC10307832

What was measured:
Experiment in all cases: relative viability (nuclei count vs DMSO), 5 days (fraction); higher = more cells survive
[1] = compound: C1=CC=C(C(=C1)C2=CC=C(C=C2)C3=CSC4=C3C(=C(C(=O)N4)C#N)O)O + C[C@]1(O)C[C@@H](c2nc(-c3ccc4ccc(-c5ccccc5)nc4c3)c3c(N)nccn32)C1 [Linsitinib] (partner 1 µM)
Procedure, shortened: (§1)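 Medians of duplicate plates are given as relative viability. That measure is the nuclei count in treated wells divided by the count in vehicle wells. Counts were taken on 4× images of lung cancer cell lines in 1536-well plates, 5 days after pin-tool dosing the day after seeding with one drug alone or a fixed anchor-drug dose plus five library-drug doses (not always all listed) in √10 steps.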

TGX 221 + Navitoclax = compound: CC1=CN2C(=O)C=C(N=C2C(=C1)C(C)NC3=CC=CC=C3)N4CCOCC4 [TGX 221] + CC1(C)CCC(c2ccc(Cl)cc2)=C(CN2CCN(c3ccc(C(=O)NS(=O)(=O)c4ccc(N[C@H](CCN5CCOCC5)CSc5ccccc5)c(S(=O)(=O)C(F)(F)F)c4)cc3)CC2)C1 [Navitoclax] (partner 0.5 µM)
Procedure, shortened: as §1

Ricolinostat + Foretinib = compound: O=C(CCCCCCNC(=O)c1cnc(N(c2ccccc2)c2ccccc2)nc1)NO [Ricolinostat] + COc1cc2c(Oc3ccc(NC(=O)C4(C(=O)Nc5ccc(F)cc5)CC4)cc3F)ccnc2cc1OCCCN1CCOCC1 [Foretinib] (partner 0.25 µM)
Procedure, shortened: as §1

Ricolinostat + Alpelisib = compound: O=C(CCCCCCNC(=O)c1cnc(N(c2ccccc2)c2ccccc2)nc1)NO [Ricolinostat] + Cc1nc(NC(=O)N2CCC[C@H]2C(N)=O)sc1-c1ccnc(C(C)(C)C(F)(F)F)c1 [Alpelisib] (partner 2 µM)
Procedure, shortened: as §1

Row | Cell Line | relative viability ([1]; first compound 0.08 µM) | relative viability ([1]; first compound 0.253 µM) | relative viability ([1]; first compound 0.8 µM) | relative viability ([1]; first compound 2.53 µM) | relative viability ([1]; first compound 8 µM) | relative viability (TGX 221 + Navitoclax; first compound 0.08 µM) | relative viability (TGX 221 + Navitoclax; first compound 0.253 µM) | relative viability (TGX 221 + Navitoclax; first compound 0.8 µM) | relative viability (TGX 221 + Navitoclax; first compound 2.53 µM) | relative viability (TGX 221 + Navitoclax; first compound 8 µM) | relative viability (Ricolinostat + Foretinib; first compound 0.08 µM) | relative viability (Ricolinostat + Foretinib; first compound 0.253 µM) | relative viability (Ricolinostat + Foretinib; first compound 0.8 µM) | relative viability (Ricolinostat + Foretinib; first compound 2.53 µM) | relative viability (Ricolinostat + Alpelisib; first compound 0.08 µM) | relative viability (Ricolinostat + Alpelisib; first compound 0.253 µM) | relative viability (Ricolinostat + Alpelisib; first compound 0.8 µM) | relative viability (Ricolinostat + Alpelisib; first compound 2.53 µM)
1 | HCC-15 | 0.914 | 0.844 | 0.985 | 0.918 | 0.871 | 0.745 | 0.642 | 0.579 | 0.67 | 0.642 | 0.876 | 1.03 | 1.05 | 1.05 | 0.753 | 0.875 | 0.834 | 0.894
2 | LU99A | 0.556 | 0.582 | 0.614 | 0.645 | 0.468 | 0.647 | 0.756 | 0.824 | 0.799 | 0.811 | 0.727 | 0.631 | 0.734 | 0.571 | 0.438 | 0.512 | 0.362 | 0.437
3 | NCI-H1703 | 0.803 | 0.446 | 0.589 | 0.507 | 0.76 | 1.05 | 0.822 | 0.969 | 0.97 | 0.633 |  | 0.398 | 0.318 | 0.513 |  | 0.316 | 0.401 | 0.377
4 | UMC-11 | 0.834 | 0.738 | 1.11 | 1.24 | 0.875 | 0.352 | 0.304 | 0.337 | 0.283 | 0.259 | 1.13 | 1.07 | 0.864 | 0.504 | 0.882 | 1.09 | 0.961 | 0.856
5 | NCI-H2405 | 0.972 | 1.05 | 0.956 | 0.831 | 0.848 | 0.701 | 0.815 | 0.804 | 0.668 | 0.636 | 0.927 | 1.05 | 1.07 | 1.11 | 0.524 | 0.805 | 0.889 | 1.08
6 | NCI-H1915 | 1.2 | 1.15 | 1.08 | 1.19 | 1.01 | 0.788 | 0.765 | 0.779 | 0.79 | 0.775 | 1.07 | 1.03 | 1.07 | 1.03 | 1.01 | 1.06 | 1.01 | 0.962
7 | NCI-H2228 | 0.623 | 0.627 | 0.686 | 0.648 | 0.666 | 0.856 | 0.949 | 0.609 | 0.931 | 0.644 | 0.754 | 1.04 | 0.783 | 0.738 | 0.555 | 0.984 | 0.722 | 0.791
8 | NCI-H322M | 1.07 | 0.587 | 0.874 | 0.909 | 0.787 | 1.13 | 1.19 | 1.14 | 0.911 | 1.33 |  | 0.964 | 0.893 | 0.928 |  | 0.829 | 0.795 | 0.715
9 | LK-2 | 0.34 | 0.553 | 0.479 | 0.717 | 0.344 | 0.98 | 0.84 | 0.81 | 0.996 | 0.948 | 1.18 | 1.35 | 1.51 | 0.934 |  | 0.995 | 1.07 | 1.62
